This assay deals with T1, α4β7 integrin interaction with MadCAM-1 (RPMI8866 cells) (Homo sapiens, UniProt P13612+P26010).
T1 construct: α4β7 integrin expressing cells; endogenous in cells; host or cells: RPMI8866 cells
T1 sequence (P13612 34-1032): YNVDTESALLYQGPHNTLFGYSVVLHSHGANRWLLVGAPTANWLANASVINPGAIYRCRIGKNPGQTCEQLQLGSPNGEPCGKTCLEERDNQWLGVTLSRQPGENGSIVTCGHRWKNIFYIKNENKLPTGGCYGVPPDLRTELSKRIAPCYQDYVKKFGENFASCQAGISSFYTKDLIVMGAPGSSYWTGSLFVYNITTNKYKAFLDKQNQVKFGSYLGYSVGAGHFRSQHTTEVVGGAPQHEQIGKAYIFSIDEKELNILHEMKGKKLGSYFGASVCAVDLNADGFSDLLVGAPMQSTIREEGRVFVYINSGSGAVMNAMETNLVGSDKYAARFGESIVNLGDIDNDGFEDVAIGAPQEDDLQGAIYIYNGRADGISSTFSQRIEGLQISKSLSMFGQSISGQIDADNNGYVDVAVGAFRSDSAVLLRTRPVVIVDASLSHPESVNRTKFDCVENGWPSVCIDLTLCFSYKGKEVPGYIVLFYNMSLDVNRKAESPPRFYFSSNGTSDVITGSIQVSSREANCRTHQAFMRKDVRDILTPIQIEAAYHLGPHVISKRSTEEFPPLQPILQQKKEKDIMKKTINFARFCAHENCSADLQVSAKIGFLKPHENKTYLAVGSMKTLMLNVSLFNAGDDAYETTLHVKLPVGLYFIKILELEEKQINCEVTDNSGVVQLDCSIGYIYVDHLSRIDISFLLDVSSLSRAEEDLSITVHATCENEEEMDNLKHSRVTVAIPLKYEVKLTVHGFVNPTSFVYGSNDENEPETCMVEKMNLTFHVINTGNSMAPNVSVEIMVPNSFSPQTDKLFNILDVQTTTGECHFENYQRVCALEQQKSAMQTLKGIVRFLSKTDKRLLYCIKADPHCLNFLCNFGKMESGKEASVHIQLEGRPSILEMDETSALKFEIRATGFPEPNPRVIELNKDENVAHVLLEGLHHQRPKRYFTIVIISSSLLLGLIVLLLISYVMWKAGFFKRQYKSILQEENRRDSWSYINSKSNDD
T1 sequence (P26010 20-798): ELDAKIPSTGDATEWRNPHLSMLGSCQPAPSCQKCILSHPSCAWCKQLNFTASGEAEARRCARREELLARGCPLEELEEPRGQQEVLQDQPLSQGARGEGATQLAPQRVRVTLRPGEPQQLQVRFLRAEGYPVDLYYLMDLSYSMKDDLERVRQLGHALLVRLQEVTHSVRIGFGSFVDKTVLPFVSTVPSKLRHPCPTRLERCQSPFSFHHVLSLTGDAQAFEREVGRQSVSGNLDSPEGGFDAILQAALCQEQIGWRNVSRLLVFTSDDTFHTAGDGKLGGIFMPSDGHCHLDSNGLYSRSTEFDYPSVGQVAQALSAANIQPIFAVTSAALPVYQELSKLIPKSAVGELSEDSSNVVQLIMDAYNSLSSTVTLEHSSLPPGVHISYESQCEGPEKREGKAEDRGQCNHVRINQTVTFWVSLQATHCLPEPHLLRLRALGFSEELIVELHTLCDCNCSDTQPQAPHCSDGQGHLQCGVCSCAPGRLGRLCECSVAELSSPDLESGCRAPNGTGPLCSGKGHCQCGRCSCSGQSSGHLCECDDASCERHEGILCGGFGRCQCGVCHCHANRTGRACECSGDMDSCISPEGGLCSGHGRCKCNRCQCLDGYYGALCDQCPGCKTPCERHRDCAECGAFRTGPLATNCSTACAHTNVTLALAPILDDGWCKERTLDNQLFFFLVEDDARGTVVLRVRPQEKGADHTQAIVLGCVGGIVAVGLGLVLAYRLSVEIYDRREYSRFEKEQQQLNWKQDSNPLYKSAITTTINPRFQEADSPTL
Briefly: α4β7 Integrin Cell Capture Assay. Type of assay: cell-based. The conditions noted are these: capture of α4β7 integrin expressing RPMI8866 cells on recombinant MadCAM-1 extracellular domain-coated plate; 0.5 mM MnCl2. As to the method:
The potency of inhibitors in preventing α4β7 integrin interaction with MadCAM-1 was measured by monitoring the capture of α4β7 integrin expressing cells on a recombinant MadCAM-1 extracellular domain-coated plate. 384-well plates (Corning 3702) were coated with MadCAM-1 extracellular domain by dispensing 20 μL of MAdCAM-1 at 1.0 μg/mL per well and incubating overnight at 4° C. The plates were then washed with PBS and blocked with 3% BSA for 2 hours before being washed again. RPMI8866 cells were spun down and re-suspended in assay medium (DMEM+0.5% FBS+0.5 mM MnCl2) at a density of 0.5×10^6 cells/mL. The cells were then dispensed (60 μL/well) to a 384-well plate (Greiner 781280) that was previously spotted with 60 nL of test compound per well. The plates were incubated at 37° C. for 1 hour. 50 μL of cells were transferred to the blocked, MadCAM-1-coated plates and incubated for 30 minutes at 37° C. 10 μL of 12% glutaraldehyde containing Hoechst 33342 (0.06 mg/mL) was added to the cells (2% glutaraldehyde and 0.01 mg/mL final concentrations). The plates were incubated for 90 minutes at room temperature. The plates were then washed 3 times with 70 μL of PBS per well and imaged on a Cellomics ArrayScan instrument. The cells that were bound to the plate were counted and plotted against the compound concentration to determine the EC50 of the test compounds.
The term EC50 denotes the concentration needed to bring the measured effect to its halfway point. For the compound `CCc1nc(-c2ccc(C[C@H](NC(=O)c3c(C)cccc3F)C(=O)O)c3c2OCCO3)c(=O)n(C)c1CC` [Example 180], the EC50 worked out at 5.04 nM.

Consider `Cc1c(-c2ccc(C[C@H](NC(=O)c3c(F)cccc3F)C(=O)O)c3c2OCCC3)c(=O)n(C)c2ccccc12` (single isomer, unassigned) [Example 59], for which the EC50 is 1.5 nM.

For `Cc1cc(N2CCOC[C@@H]2C(F)(F)F)cc(F)c1C(=O)N[C@@H](Cc1ccc(-c2c(C(F)(F)F)cc(C)n(C)c2=O)c2c1COC2)C(=O)O` [Example 188], the EC50 turned out to be 0.227 nM.

Take `Cc1cc(N2CCOC[C@@H]2C(F)(F)F)cc(F)c1C(=O)N[C@@H](Cc1ccc(-c2c(C)c(C(F)(F)F)cn(C)c2=O)c2c1CCCO2)C(=O)O` [Example 146]: the EC50 was determined as 0.416 nM.

As to `Cc1nc(-c2ccc(C[C@H](NC(=O)c3c(F)cc(N4CCOC[C@@H]4C(F)(F)F)cc3F)C(=O)O)c3c2CC(O)C3)c(=O)n(C)c1C` (stereo partly drawn) [Example 197], the EC50 is 0.308 nM.

On to `Cc1cc(N2CCC2)c(-c2ccc(C[C@H](NC(=O)c3c(F)cc(N4CCOC[C@@H]4C(F)(F)F)cc3F)C(=O)O)c3c2OCCC3)c(=O)n1C` [Example 167], for which the EC50 was found to be 0.521 nM.

`O=C(N[C@@H](Cc1ccc(-c2ncc3ccccc3c2Br)c2c1CCCO2)C(=O)O)c1c(Cl)cccc1Cl` [Example 63, (S)-3-(8-(4-bromoisoquinolin-3-yl)chroman-5-yl)-2-(2,6-dichlorobenzamido) propanoic acid]: the EC50 worked out at 7.99 nM.

As for `Cc1cc(C)n(C)c(=O)c1-c1ccc(C[C@H](NC(=O)c2c(F)cc(N[C@H](C)C(F)(F)F)cc2F)C(=O)O)c2c1OCCC2` [Example 53, (S)-2-(2,6-difluoro-4-(((R)-1,1,1-trifluoropropan-2-yl)amino)benzamido)-3-(8-(1,4,6-trimethyl-2-oxo-1,2-dihydropyridin-3-yl)chroman-5-yl)propanoic acid], the EC50 turned out to be 3.28 nM.

In the case of `CC[C@@H](Nc1cc(F)c(C(=O)N[C@@H](Cc2ccc(-c3c(C(F)(F)F)cc(C)n(C)c3=O)c3c2CCC3)C(=O)O)c(F)c1)C(F)(F)F` [Example 201], the concentration giving a half-maximal response (EC50) is 0.63 nM.

For the compound `COc1cc(C)n(C)c(=O)c1-c1ccc(C[C@H](NC(=O)c2c(C)cc(N3CCOC[C@@H]3C(F)(F)F)cc2F)C(=O)O)c2c1CCC2` [Example 198], the EC50 stood at 0.081 nM.

Regarding `Cc1cc(N2CCOC[C@@H]2C(F)(F)F)cc(F)c1C(=O)N[C@@H](Cc1ccc(-c2nc(C)c(C)n(C)c2=O)c2c1CCCO2)C(=O)O` [Example 165], the concentration giving a half-maximal response (EC50) turned out to be 0.25 nM.

As to `Cc1cc(C(F)(F)F)c(-c2ccc(C[C@H](NC(=O)c3c(F)cc(N[C@H](C)C(F)(F)F)cc3F)C(=O)O)c3c2OCCC3)c(=O)n1C` (single isomer, unassigned) [Example 41], the EC50 came out at 0.594 nM.

For `CC[C@@H](Nc1cc(F)c(C(=O)N[C@@H](Cc2ccc(-c3c(C(F)(F)F)cc(C)n(C)c3=O)c3c2CCCO3)C(=O)O)c(F)c1)C(F)(F)F` [Example 43, (S)-2-(2,6-difluoro-4-(((R)-1,1,1-trifluorobutan-2-yl)amino)benzamido)-3-(8-(1,6-dimethyl-2-oxo-4-(trifluoromethyl)-1,2-dihydropyridin-3-yl)chroman-5-yl)propanoic acid], the half-maximal effective concentration (EC50) stood at 0.633 nM.

For the compound `O=C(N[C@@H](Cc1ccc(-c2c(Cl)cc(F)cc2Cl)c2c1OCCN2)C(=O)O)c1c(F)cccc1F` [Example 51, (S)-3-(5-(2,6-dichloro-4-fluorophenyl)-3,4-dihydro-2H-benzo[b][1,4]oxazin-8-yl)-2-(2,6-difluorobenzamido)propanoic acid], the EC50 came to 34 nM.

`O=C1CCc2c(C[C@H](NC(=O)c3c(F)cccc3F)C(=O)O)ccc(-c3c(Cl)cc(F)cc3Cl)c2N1` [Example 103, (S)-3-(8-(2,6-dichloro-4-fluorophenyl)-2-oxo-1,2,3,4-tetrahydroquinolin-5-yl)-2-(2,6-difluorobenzamido)propanoic acid]: the EC50 worked out at 96 nM.

With `Cc1c(-c2ccc(C[C@H](NC(=O)c3c(F)cc(N4CCOC[C@@H]4C(F)(F)F)cc3F)C(=O)O)c3c2OCCO3)c(=O)n(C)c(=O)n1C` (single isomer, unassigned) [Example 9], the EC50 was 0.431 nM.

As to `Cc1nc(C)n(C)c(=O)c1-c1ccc(C[C@H](NC(=O)c2c(F)cc(N3CCOC[C@@H]3C(F)(F)F)cc2F)C(=O)O)c2c1OCCC2` [Example 130], the EC50 came to 0.341 nM.

Turning to `Cn1c2c(nc(-c3ccc(C[C@H](NC(=O)c4c(F)cc(N5CCOC[C@@H]5C(F)(F)F)cc4F)C(=O)O)c4c3OCCC4)c1=O)CCCC2` [Example 127], the EC50 is 0.455 nM.

For `COc1ccc(C)nc1-c1ccc(C[C@H](NC(=O)c2c(F)cc(N3CCOC[C@@H]3C(F)(F)F)cc2F)C(=O)O)c2c1OCCC2` [Example 140], the EC50 came to 0.55 nM.

On to `Cc1cc(C)n(C)c(=O)c1-c1ccc(C[C@H](NC(=O)c2c(F)cc(N3CCOC[C@@H]3C(F)(F)F)cc2F)C(=O)O)c2c1OCCC2` [Example 161], for which the EC50 turned out to be 0.364 nM.

Turning to `Cc1cc(C(F)(F)F)c(-c2ccc(C[C@H](NC(=O)c3c(F)cc(N4CCOC[C@@H]4C(F)(F)F)cc3F)C(=O)O)c3c2COC3)c(=O)n1C` [Example 19, (S)-2-(2,6-difluoro-4-((R)-3-(trifluoromethyl)morpholino)benzamido)-3-(7-(1,6-dimethyl-2-oxo-4-(trifluoromethyl)-1,2-dihydropyridin-3-yl)-1,3-dihydroisobenzofuran-4-yl)propanoic acid], the EC50 worked out at 0.193 nM.

For the compound `Cc1nc(-c2ccc(C[C@H](NC(=O)c3c(F)cc(N4CCOC[C@@H]4C(F)(F)F)cc3Cl)C(=O)O)c3c2OCCC3)c(=O)n(C)c1C` [Example 150], the EC50 was determined as 0.14 nM.

Turning to `Cc1cc(N2CCOC[C@@H]2C(F)(F)F)cc(F)c1C(=O)N[C@@H](Cc1ccc(-c2c(C)ncn(C)c2=O)c2c1CCCO2)C(=O)O` [Example 134], the EC50 is 0.374 nM.

In the case of `O=C(N[C@@H](Cc1ccc(-c2ncccc2C(F)(F)F)c2c1CCCO2)C(=O)O)c1c(F)cc(N[C@H](c2ccccc2)C(F)(F)F)cc1F` [Example 86, (S)-2-(2,6-difluoro-4-(((R)-2,2,2-trifluoro-1-phenylethyl)amino)benzamido)-3-(8-(3-(trifluoromethyl)pyridin-2-yl)chroman-5-yl)propanoic acid], the EC50 turned out to be 3.34 nM.

The values are drawn from patent publication US20220226337A1 (Gilead Sciences, Inc., priority 2018, published 2022).
